According to patent US20240390484A1 (priority 2022, published 2024):
Where two headings read alike, the source gives them in different places.

Assays:
[1] = Particle size and polydispersity index (PDI) by Dynamic Light Scattering; assay type: physicochemical; conditions: for “Ready-to-use” S2P RNA formulation PDI / “Ready-to-use” S2P RNA formulation Size: 48/40.5/10/1.5 mol %, blank-LNP added to lyophilized S2P RNA (55 ug/vial), N/P 7
Description: (§1) Lipid nanoparticles (LNPs) were formed or formulated by rapid mixing of an ethanol phase and an aqueous phase using a microfluidic device. The aqueous phase included a 50 mM citrate buffer (pH 5.5). The ethanol phase included an ionizable lipid (as described herein), cholesterol (Jiangsu Southeast Nanomaterials), 1,2-diastearoyl-sn-glycero-3-phosphocholine (DSPC) (Jiangsu Southeast Nanomaterials) and 1,2-dimyristoyl-rac-glycero-3-methoxypolyethylene glycol-2000 (DMG-PEG2000) (SINOPEG). A series of ionizable lipids were evaluated. These four lipid components were mixed at defined molar ratios in ethanol, for instance, at a molar ratio of 48:40.5:10:1.5 (ionizable lipid:cholesterol:DSPC:DMG-PEG2000). The generated LNP particles were purified in citrate buffer (containing sucrose) and characterized with respect to particle size, polydispersity index (PDI) and ionizable lipid concentration. The LNP solution was then diluted to the target concentration and stored at 2-8° C.
(§2) In the case of a filled LNP, for example, an LNP-encapsulated S-2P RNA liquid drug product, the preparation protocol is essentially the same, except that it was an aqueous solution of S-2P RNA in citrate buffer pH 5-6 that constitutes the aqueous phase for LNP formation. The LNP-encapsulated RNA formulation is also referred to as “RNA-LNP” in this disclosure. Regarding characterization, particle size and polydispersity index (PDI) of the RNA-LNP were determined by Dynamic Light Scattering (DLS); RNA encapsulation efficiency and concentration were determined by means of Ribogreen® assay and RNA purity was determined by agarose gel electrophoresis.
(§3) The “ready-to-use” RNA product was manufactured by transferring a predetermined amount of already formed LNP in solution to a sealed vial containing the lyophilized RNA composition, followed by mixing at room temperature. The amount of LNP added per vial (e.g., 30-100 μg RNA per vial) was determined based on the molar ionizable lipid:RNA (N/P) molar ratio of 7. In this disclosure, “ready-to-use” S-2P RNA formulations (also referred to as “LNP(S-2P RNA)”) containing 30-100 μg/mL S-2P RNA were prepared, and then characterized with respect to particle size, polydispersity index, as well as RNA concentration, complexation efficiency, and purity using the same methods as described above in Example 3.

[2] = RNA encapsulation/complexation efficiency by Ribogreen assay; assay type: physicochemical; conditions: for “Ready-to-use” S2P RNA formulation RNA complexation efficiency: 48/40.5/10/1.5 mol %, blank-LNP added to lyophilized S2P RNA (55 ug/vial), N/P 7
Description: as §2, §3

BHK-21 cells = assay type: cell-based; conditions: 4 μg
Vero E6 cells = assay type: cell-based; conditions: 4 μg
[3] = Stability of blank-LNP at 2-8° C. (particle size, PDI); assay type: physicochemical; conditions: blank-LNP 48/40.5/10/1.5 mol %
Description: as §1
Each generated blank-LNP formulation was added to and mixed with lyophilized S2P RNA, altogether yielding a series of “ready-to-use” S2P RNA test items containing the different ionizable lipids. The pharmaceutical characteristics (Table 3) and in vitro transfection efficiency (Table 4) of these “ready-to-use” RNA test items were compared head-to-head. In parallel, the stability profiles of these […] blank-LNP formulations (i.e. without RNA complexation) were assessed at 2-8° C. (see Table 5).
The generated fourteen blank-LNP formulations were characterized in terms of particle size and PDI, both at the end of manufacturing (T=0) and 8-week storage at 2-8° C. […] (defined as size increase ≤20 nm in 8 weeks), namely DMG-PEG2000 between at least 1-4 mol %, DSPC between at least 5-20 mol %, ionizable lipid between at least 30-70 mol % and cholesterol between at least 18.5-58.5 mol %.

[4] = blank-LNP, 48/40.5/10/1.5 mol % ionizable lipid/cholesterol/DSPC/DMG-PEG
[5] = ready-to-use S2P RNA, 48 hours post transfection, 48/40.5/10/1.5 mol %
[6] = ionizable lipid/Chol/DSPC/DMG-PEG 20/57.0/20/3.0 mol %
[7] = ionizable lipid/Chol/DSPC/DMG-PEG 30/55.0/12/3.0 mol %
[8] = ionizable lipid/Chol/DSPC/DMG-PEG 40/48.5/10/1.5 mol %
[9] = ionizable lipid/Chol/DSPC/DMG-PEG 45/43.5/10/1.5 mol %
[10] = ionizable lipid/Chol/DSPC/DMG-PEG 50/38.5/10/1.5 mol %
[11] = ionizable lipid/Chol/DSPC/DMG-PEG 60/30.0/8.5/1.5 mol %
[12] = ionizable lipid/Chol/DSPC/DMG-PEG 70/22.5/6/1.5 mol %
[13] = ionizable lipid/Chol/DSPC/DMG-PEG 70/22.5/6.0/1.5 mol %

SMILES: CCCCCCCCOC/C=C\COC(=O)CCCCCCCCC(CCCCCCCCC(=O)OC(CCCCCCCC)CCCCCCCC)OC(=O)CCCN(C)C (stereo not shown) [Lipid #12]
- “Ready-to-use” S2P RNA formulation PDI [1]: 0.14
- “Ready-to-use” S2P RNA formulation Size [1]: 172 nm
- Blank-LNP PDI [1, 4]: 0.04
- Blank-LNP Size [1, 4]: 85 nm
- “Ready-to-use” S2P RNA formulation RNA complexation efficiency [2]: 27%
- RBD expression in BHK-21 cells (BHK-21 cells; [5]): 0.19 ng/mL
- RBD expression in Vero E6 cells (Vero E6 cells; [5]): <LOD
- Change in size (nm) vs. T0, T = 1 month [3]: +12 nm
- PDI, T = 1 month [3]: 0.11
- Size, T = 1 month [3]: 97 nm
- Change in size (nm) vs. T0, T = 2 weeks [3]: +8 nm
- PDI, T = 2 weeks [3]: 0.06
- Size, T = 2 weeks [3]: 93 nm
- PDI, T = 0 [3]: 0.04
- Size, T = 0 [3]: 85 nm

SMILES: CCCCCCCCCOC(=O)CCCCCCCOc1ccc(OCCCCCCCC(=O)OC(CCCCCCCC)CCCCCCCC)cc1COC(=O)CCCN(C)C
- “Ready-to-use” S2P RNA formulation PDI [1]: 0.12
- “Ready-to-use” S2P RNA formulation Size [1]: 173 nm
- Blank-LNP PDI [1, 4]: 0.13
- Blank-LNP Size [1, 4]: 88 nm
- Blank-LNP PDI [1, 6]: 0.18
- Blank-LNP Size [1, 6]: 82 nm
- “Ready-to-use” S2P RNA PDI [1, 6]: 0.21
- “Ready-to-use” S2P RNA Size [1, 6]: 157 nm
- Blank-LNP PDI [1, 7]: 0.2
- Blank-LNP Size [1, 7]: 75 nm
- “Ready-to-use” S2P RNA PDI [1, 7]: 0.21
- “Ready-to-use” S2P RNA Size [1, 7]: 125 nm
- Blank-LNP PDI [1, 8]: 0.12
- Blank-LNP Size [1, 8]: 90 nm
- “Ready-to-use” S2P RNA PDI [1, 8]: 0.18
- “Ready-to-use” S2P RNA Size [1, 8]: 169 nm
- Blank-LNP PDI [1, 9]: 0.04
- Blank-LNP Size [1, 9]: 87 nm
- “Ready-to-use” S2P RNA PDI [1, 9]: 0.12
- “Ready-to-use” S2P RNA Size [1, 9]: 151 nm
- Blank-LNP PDI [1, 10]: 0.11
- Blank-LNP Size [1, 10]: 83 nm
- “Ready-to-use” S2P RNA PDI [1, 10]: 0.13
- “Ready-to-use” S2P RNA Size [1, 10]: 147 nm
- Blank-LNP PDI [1, 11]: 0.15
- Blank-LNP Size [1, 11]: 76 nm
- “Ready-to-use” S2P RNA PDI [1, 11]: 0.13
- “Ready-to-use” S2P RNA Size [1, 11]: 143 nm
- Blank-LNP PDI [1, 12]: 0.21
- Blank-LNP Size [1, 12]: 77 nm
- “Ready-to-use” S2P RNA PDI [1, 12]: 0.16
- “Ready-to-use” S2P RNA Size [1, 12]: 146 nm
- “Ready-to-use” S2P RNA formulation RNA complexation efficiency [2]: 42%
- “Ready-to-use” S2P RNA, RNA complex. efficiency [2, 6]: 54%
- “Ready-to-use” S2P RNA, RNA complex. efficiency [2, 7]: 61%
- “Ready-to-use” S2P RNA, RNA complex. efficiency [2, 8]: 51%
- “Ready-to-use” S2P RNA, RNA complex. efficiency [2, 9]: 50%
- “Ready-to-use” S2P RNA, RNA complex. efficiency [2, 10]: 48%
- “Ready-to-use” S2P RNA, RNA complex. efficiency [2, 11]: 44%
- “Ready-to-use” S2P RNA, RNA complex. efficiency [2, 12]: 40%
- RBD expression in BHK-21 cells (BHK-21 cells; [6]): 0.082 ng/mL
- RBD expression in BHK-21 cells (BHK-21 cells; [7]): 1.655 ng/mL
- RBD expression in BHK-21 cells (BHK-21 cells; [8]): 1.517 ng/mL
- RBD expression in BHK-21 cells (BHK-21 cells; [9]): 2.090 ng/mL
- RBD expression in BHK-21 cells (BHK-21 cells; [10]): 1.887 ng/mL
- RBD expression in BHK-21 cells (BHK-21 cells; [11]): 0.812 ng/mL
- RBD expression in BHK-21 cells (BHK-21 cells; [13]): <LOD
- RBD expression in Vero E6 cells (Vero E6 cells; [6]): <LOD
- RBD expression in Vero E6 cells (Vero E6 cells; [7]): 0.129 ng/mL
- RBD expression in Vero E6 cells (Vero E6 cells; [8]): 1.204 ng/mL
- RBD expression in Vero E6 cells (Vero E6 cells; [9]): 1.842 ng/mL
- RBD expression in Vero E6 cells (Vero E6 cells; [10]): 1.633 ng/mL
- RBD expression in Vero E6 cells (Vero E6 cells; [11]): 1.239 ng/mL
- RBD expression in Vero E6 cells (Vero E6 cells; [13]): 0.0939 ng/mL
- PDI, T = 1 month [3]: 0.09
- Size, T = 1 month [3]: 88 nm
- Change in size (nm) vs. T0, T = 2 weeks [3]: −9 nm
- PDI, T = 2 weeks [3]: 0.06
- Size, T = 2 weeks [3]: 79 nm
- PDI, T = 0 [3]: 0.13
- Size, T = 0 [3]: 88 nm

SMILES: CC/C=C/CCCC(CCC/C=C/CC)OC(=O)CCCCCCCC(CCCCCCCC(=O)OC/C=C/CCCCCC)COC(=O)CCCN(C)C (stereo not shown) [Lipid #10]
- “Ready-to-use” S2P RNA formulation PDI [1]: 0.21
- “Ready-to-use” S2P RNA formulation Size [1]: 204 nm
- Blank-LNP PDI [1, 4]: 0.05
- Blank-LNP Size [1, 4]: 91 nm
- “Ready-to-use” S2P RNA formulation RNA complexation efficiency [2]: 34%
- RBD expression in BHK-21 cells (BHK-21 cells; [5]): 0.33 ng/mL
- RBD expression in Vero E6 cells (Vero E6 cells; [5]): 0.25 ng/mL
- Change in size (nm) vs. T0, T = 1 month [3]: +29 nm
- PDI, T = 1 month [3]: 0.21
- Size, T = 1 month [3]: 120 nm
- Change in size (nm) vs. T0, T = 2 weeks [3]: +16 nm
- PDI, T = 2 weeks [3]: 0.11
- Size, T = 2 weeks [3]: 107 nm
- PDI, T = 0 [3]: 0.05
- Size, T = 0 [3]: 91 nm
